Results on 64 compounds are retold here after BindingDB's records for doi:10.7270/Q2K935WV (Nmmlsc, 2008).

Counter-ions that a name gives are not always drawn.

Sequence of Isoform Bcl-X(L) of Bcl-2-like protein 1 (Bcl-xL) (Q07817 whole entry G70A, canonical isoform): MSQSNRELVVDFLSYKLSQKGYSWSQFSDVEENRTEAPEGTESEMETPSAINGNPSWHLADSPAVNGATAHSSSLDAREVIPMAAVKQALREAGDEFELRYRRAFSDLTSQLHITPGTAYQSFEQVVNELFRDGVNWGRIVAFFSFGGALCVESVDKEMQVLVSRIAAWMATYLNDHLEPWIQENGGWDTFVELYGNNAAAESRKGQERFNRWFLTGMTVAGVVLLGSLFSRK

The first test has as its target Isoform Bcl-X(L) of Bcl-2-like protein 1 (Bcl-xL) (Homo sapiens, UniProt Q07817). Nature of the test: Bim-Bcl-XL interaction inhibitors, potency, dose response, biochemical, multiplexed, bead flow cytometry, human Bcl-XL (AID 1322). As to conditions: inactive by the depositor's call; pH 7.4; 4 °C.
In the case of `CCN(CC)c1ccc(-c2nn3c(-c4cccnc4)nnc3s2)cc1`, the EC50 was 7.92 µM.
The same measure, in the same setting: with `CCOCCCNc1nc(S)nc2cc(OC)c(OC)cc12` the figure was 3.43 µM.
The same measure, in the same setting: the same measure for `COCCNc1[nH]c(=S)nc2cc(OC)c(OC)cc12`: 7.43 µM; for `CN1CCN(C2=C(Cl)C(=O)C(c3cnc(N4CCCCC4)s3)=C(Cl)C2=O)CC1`: 1 µM.
`CCOC(=O)c1ccc(Nc2nc(C(=O)OCC)nc3ccccc23)cc1` came in with an EC50 of 2.97 µM.
In turn, `CCOCCCn1c(N)c(C(=O)Nc2sc3c(c2C(=O)OC)CCCC3)c2nc3ccccc3nc21` displayed an EC50 of 1.97 µM.
For `CCN1C(=O)/C(=C/C=C2\C=CN(CC)c3ccccc32)SC1=S`, it took 29.5 µM to reach a half-maximal effect (EC50).
Still for that read-out and setting: with `Cc1ccc(-c2ccc(/C=C/C(=O)c3ccccc3)o2)cc1` the figure was 5.19 µM.
Consider `O=S1(=O)N=C(N(CCO)N=C/C=C/c2ccccc2)c2ccccc21`, for which the EC50 came out at 20 µM.
The same measure, in the same setting: with `COc1ccc(-n2c(=O)c3ccccc3c3ccccc3c2=O)c(OC)c1` the figure was 12.8 µM.
The same measure, in the same setting: the same measure for `CCOC(=O)c1c2c3c(cccc3[nH]c1=O)C(=O)c1ccccc1-2`: 2.12 µM.
Still for that read-out and setting: with `COc1cc2nc(=S)n(CCCN3CCOCC3)c(N)c2cc1OC` the figure was 10.9 µM.
`Cc1ccc(C(=O)/C=C/c2ccc(-c3ccc(C)cc3)o2)cc1` [1-p-Tolyl-3-(5-p-tolyl-furan-2-yl)-propenone] showed an EC50 of 2.14 µM.
The compound `Cc1cc(OCc2cn3cccnc3n2)ccc1Cl` [2-[(4-chloranyl-3-methyl-phenoxy)methyl]imidazo[1,2-a]pyrimidine] gave an EC50 of 17.9 µM.
Compound `O=C(CSc1ccc2nnc(-c3ccccn3)n2n1)Nc1nccs1` [2-[[3-(2-pyridinyl)-[1,2,4]triazolo[4,3-b]pyridazin-6-yl]thio]-N-(2-thiazolyl)acetamide] returned an EC50 of 11.3 µM.
Same read-out and setting: with `O=C(/C=C/c1ccccc1Cl)c1ccccc(=O)c1O` [3-[(E)-3-(2-chlorophenyl)prop-2-enoyl]-2-oxidanyl-cyclohepta-2,4,6-trien-1-one] the figure was 19.3 µM; with `NC(=O)c1sc2nc3c(c(-c4ccco4)c2c1N)CCC3` [3-amino-4-(2-furyl)-6,7-dihydro-5H-cyclopenta[b]thieno[3,2-e]pyridine-2-carboxamide], 3.43 µM.
With `c1cncc(-c2nnc3n2N=C(c2cccs2)CS3)c1` [3-pyridin-3-yl-6-thiophen-2-yl-7H-[1,2,4]triazolo[3,4-b][1,3,4]thiadiazine], the EC50 amounted to 7.17 µM.
Compound `Cc1nc2ncccn2c1-c1csc(Nc2ccccc2)n1` [4-(2-methyl-3-imidazo[1,2-a]pyrimidinyl)-N-phenyl-2-thiazolamine] yielded an EC50 of 10.1 µM.
Still for that read-out and setting: the same measure for `Cc1cc(C)nc(SCc2cc(=O)c(OC(=O)c3ccc(Cl)c([N+](=O)[O-])c3)co2)n1` [4-chloro-3-nitrobenzoic acid [6-[[(4,6-dimethyl-2-pyrimidinyl)thio]methyl]-4-oxo-3-pyranyl] ester]: 5.09 µM; for `O=C(N[N-][CH+]c1ccc(-c2ccccc2[N+](=O)[O-])o1)c1cncc(Br)c1` [5-bromo-N-[[5-(2-nitrophenyl)furan-2-yl]methylideneamino]pyridine-3-carboxamide]: 28.3 µM; for `COc1cc2nc(=S)[nH]c(NCC3CCCO3)c2cc1OC` (centres undefined) [6,7-dimethoxy-4-(2-oxolanylmethylamino)-1H-quinazoline-2-thione]: 4.65 µM.
Same read-out and setting: with `CCOc1ccccc1-n1c(=O)c2ccccc2c2ccccc2c1=O` [6-(2-ethoxyphenyl)-5H-dibenzo[c,e]azepine-5,7(6H)-dione] the figure was 26.5 µM; with `COc1ccc(C2=Nn3c(nnc3-c3ccco3)SC2)cc1OC` [6-(3,4-Dimethoxy-phenyl)-3-furan-2-yl-7H-[1,2,4]triazolo[3,4-b][1,3,4]thiadiazine], 2.85 µM.
The same measure, in the same setting: with `CCOc1ccc(C2=Nn3c(nnc3-c3ccccn3)SC2)cc1` [6-(4-ethoxyphenyl)-3-(2-pyridinyl)-7H-[1,2,4]triazolo[3,4-b][1,3,4]thiadiazine] the figure was 14.3 µM.
Turning to `O=c1nc2c(O)cccn2c2c1c(O)nc1ccccc12` [9-Hydroxy-5H-5,8,12a-triaza-benzo[c]phenanthrene-6,7-dione], a half-maximal effect (EC50) was put at 13.7 µM.
The same measure, in the same setting: with `CN(N=C/C=C/c1ccccc1)C1=NS(=O)(=O)c2ccccc21` [(1E,2E)-3-phenylacrylaldehyde (1,1-dioxido-1,2-benzisothiazol-3-yl)(methyl)hydrazone] the figure was 2.82 µM.
`COc1cc(/C=C2\CC/C(=C\c3cc(OC)c(O)c(OC)c3)C2=O)cc(OC)c1O` [(2E,5E)-2,5-bis[(4-hydroxy-3,5-dimethoxyphenyl)methylidene]cyclopentan-1-one] came in with an EC50 of 3.02 µM.
On the same count and under the same terms, the same measure for `O=C1/C(=C\c2ccc(-c3ccccc3Cl)o2)SC(=S)N1CC1CCCO1` (centres undefined) [(5E)-5-[[5-(2-chlorophenyl)furan-2-yl]methylidene]-3-(oxolan-2-ylmethyl)-2-sulfanylidene-1,3-thiazolidin-4-one]: 1.55 µM; for `Cc1ccc(-c2ccc(/C=C3\SC(N4CCOCC4)=NC3=O)o2)cc1` [(5Z)-5-[[5-(4-methylphenyl)-2-furanyl]methylidene]-2-(4-morpholinyl)-4-thiazolone]: 78.6 µM.
On the same count and under the same terms, with `O=C1c2ccccc2-c2onc3ccc(NCc4ccco4)c1c23` [MLS000080234] the figure was 10.2 µM.
With `Cc1cc(-c2nnc3n2N=C(c2ccc(-c4ccccc4)cc2)CS3)[nH]n1` [MLS000082991], it took 11.7 µM to reach a half-maximal effect (EC50).
In the case of `Cc1cc2n(c1)CCn1c(C)ccc1-2` [MLS000104384], it took 26.5 µM to reach a half-maximal effect (EC50).
Compound `CCCCNC(=O)c1ccc2nc(-c3ccco3)c(-c3ccco3)nc2c1` [MLS000119995] displayed an EC50 of 25.3 µM.
On the same count and under the same terms, with `Clc1nc(NCc2cccnc2)nc(N2CCOCC2)n1` [MLS000121154] the figure was 18.1 µM; with `COCCCn1c(N)c(C(=O)Nc2sc3c(c2C(=O)OC)CCCC3)c2nc3ccccc3nc21` [MLS000595323], 3.32 µM; with `COc1cc2nc(=S)[nH]c(NCCc3ccc(S(N)(=O)=O)cc3)c2cc1OC` [MLS000674601], 0.51 µM.
The compound `COc1ccc(C)cc1-n1c(=O)c2ccccc2c2ccccc2c1=O` [MLS000682999] returned an EC50 of 18.7 µM.
Take `Cc1ccnc(SCc2cc(=O)c(OC(=O)c3ccc(Cl)c([N+](=O)[O-])c3)co2)n1` [MLS000696790]: it took 19.6 µM to reach a half-maximal effect (EC50).
Still for that read-out and setting: the same measure for `CCOC(=O)c1c(O)nc2ccc(Cl)c3c2c1-c1ccccc1C3=O` [MLS000704595]: 5.86 µM; for `Cc1ccc(OCc2cn3cccnc3n2)cc1` [MLS000723172]: 46.1 µM.
In the case of `c1ccc(Nc2cccc(Nc3ccccc3)n2)cc1` [N,N'-diphenyl-2,6-pyridinediamine], the EC50 stood at 6.98 µM.
In turn, `CC(=O)c1ccc(NC(=O)c2ccc3nc(-c4ccco4)c(-c4ccco4)nc3c2)cc1` [N-(4-acetylphenyl)-2,3-di-2-furyl-6-quinoxalinecarboxamide] came in with an EC50 of 23.1 µM.
On the same count and under the same terms, with `COc1ccc(CCNC(=O)c2ccc3nc(-c4ccco4)c(-c4ccco4)nc3c2)cc1OC` [N-[2-(3,4-dimethoxyphenyl)ethyl]-2,3-di-2-furylquinoxaline-6-carboxamide] the figure was 20.7 µM; with `Cc1cccc(C(=O)/N=c2\c(C#N)cc3c(=O)n4cccc(C)c4nc3n2Cc2ccco2)c1` [N-[3-cyano-1-(furan-2-ylmethyl)-10-methyl-5-oxodipyrido[3,4-c:1',2'-f]pyrimidin-2-ylidene]-3-methylbenzamide], 50.4 µM; with `COCCCNc1nc(S)nc2cc(OC)c(OC)cc12` [SMR000026607], 3.65 µM.
On the same count and under the same terms, the same measure for `CSc1nnc2c3cc(C)ccc3n(Cc3ccccc3)c2n1` [SMR000046397]: 20.6 µM.
Same read-out and setting: with `c1ccc(-c2nc(N3CCCCCC3)c3ccccc3n2)nc1` [SMR000046752] the figure was 21.9 µM; with `C#CCn1cc(C=C2C(=O)c3ccccc3C2=O)c2ccccc21` [SMR000196125], 11.7 µM; with `CN(N=Cc1cccnc1)C1=NS(=O)(=O)c2ccccc21` [SMR000207578], 19.2 µM.

The test is the same for the next values; noted with them: pH 7.4; 4 °C.
Turning to `CN1CCc2cccc3c2[C@@H]1Cc1ccc(O)c(O)c1-3`, the EC50 was found to be 18.6 µM.
`COc1cccc(CN=Nc2nn3cnnc3c3ccccc23)c1O`: a half-maximal response (EC50) required 0.57 µM.
`CCC(/C=C1\Sc2ccc(OC)cc2N1CCO)=C\c1sc2ccc(OC)cc2[n+]1CCO`: the EC50 amounted to 19.2 µM.
Consider `Cc1nc2ncccn2c1-c1csc(Nc2ccc(O)cc2)n1`, for which the EC50 was 0.39 µM.
The compound `COc1cc(CN=Nc2nn3cnnc3c3ccccc23)ccc1O` [(4E)-2-methoxy-4-[[2-([1,2,4]triazolo[3,4-a]phthalazin-6-yl)hydrazinyl]methylidene]cyclohexa-2,5-dien-1-one] showed an EC50 of 2.43 µM.
On the same count and under the same terms, the same measure for `O=C(/C=C\c1ccc(-c2ccccc2)o1)c1ccccc1` [(Z)-1-phenyl-3-(5-phenyl-2-furanyl)-2-propen-1-one]: 9.36 µM.
Still for that read-out and setting: with `CN1CCc2cccc3c2[C@H]1Cc1ccc(O)c(O)c1-3` [APOMORPHINE HYDROCHLORIDE] the figure was 18.9 µM; with `CCCCNc1[nH]c(=S)nc2cc(OC)c(OC)cc12` [MLS000520261], 3.81 µM; with `OCCN1CCN(CCCc2c3c(cc4c2CCC4)CCC3)CC1` [MLS000698424], 16.1 µM.
The same measure, in the same setting: the same measure for `COc1cccc2c(SCC(=O)NN=Cc3ccc(O)cc3O)cc(C)nc12` [N'-[(E)-(2-hydroxy-4-oxo-1-cyclohexa-2,5-dienylidene)methyl]-2-[(8-methoxy-2-methyl-4-quinolinyl)thio]acetohydrazide]: 83.6 µM.
The compound `COc1cc(C=NNC(=O)CN(Cc2ccco2)S(=O)(=O)c2ccccc2)ccc1O` [N-(2-furanylmethyl)-N-[2-[[(E)-(3-methoxy-4-oxo-1-cyclohexa-2,5-dienylidene)methyl]hydrazo]-2-oxoethyl]benzenesulfonamide] had an EC50 of 18.4 µM.
Compound `COc1cccc(CN=Nc2nn3cnnc3c3ccccc23)c1` [N-[1-(3-Methoxy-phenyl)-meth-(E)-ylidene]-N'-[1,2,4]triazolo[3,4-a]phthalazin-6-yl-hydrazine] returned an EC50 of 2.04 µM.
The same measure, in the same setting: with `O=C1c2ccccc2-c2onc3ccc(NCCCn4ccnc4)c1c23` [SMR000044769] the figure was 1.14 µM; with `Clc1nc2ccccc2cc1CN=Nc1nc2ccccc2[nH]1` [SMR000221568], 49.7 µM.
